# Values of other authors in US20240252403A1, “SKIN CARE COMPOSITION FOR APPLICATION TO SKIN” (COSMED PHARMACEUTICAL CO., LTD., priority 2021, published 2024).
row,SMILES,saturation solubility [g/100 g]
1,N[C@@H](CCC(=O)N[C@@H](CS)C(=O)NCC(=O)O)C(=O)O [glutathione],13.0
2,Cc1ncc(CO)c(CO)c1O.Cl [pyridoxine hydrochloride],22.0
3,NCCS(=O)(=O)O [taurine],7.9
